According to PMC11175440, “Exploring hydrophilic 2,2-di(indol-3-yl)ethanamine derivatives against Leishmania infantum” (PLOS ONE, 2024):
Several values for one entry are separate records, joined by “and”; a condition that tells them apart may be missing. Equal values may be shown once. Entries after “also recorded” stand apart in the source; their conditions may differ.

Assays:
[1] = tested on: L. infantum (MHOM/MA/67/ITMAP-263) axenic amastigotes; test: In vivo anti-amastigote activity in BALB/c mice infection model (limiting dilution parasite burden); conditions: spleen, liver, bone marrow; URB1483 5 mg/kg/day IP in 60% PEG 400, 10 days; 5 mg/kg/day
Experimental: The compound URB1483 was selected for the in vivo evaluation on a BALB/c mice infection model. Six- to seven-week-old BALB/c mice were purchased from Charles River Laboratories (Barcelona, Spain) or the I3S (Porto, Portugal) animal facility. Luciferase-expressing L. infantum (MHOM/MA/67/ITMAP-263) axenic amastigotes were cultured in complete cell-free medium MAA/20 [20] at 37°C with 5% CO2. Five-day-old cultures of amastigotes were washed twice with PBS and resuspended at a concentration of 1×10^9 parasites/Ml. A total of 17 mice were infected with 100 μL of parasite suspension containing 1×10^8 parasites. The injection was performed intra-venously (IV) in the tails of mice, and treatments started 21 days post-infection for 10 consecutive days. Formulation studies are reported in the Supporting Information (S1 Table in S1 File). […]
Mice well-being-assessment was checked every two days, in terms of weight control and the presence of stress signs. […] Spleen and liver were weighted, and bone marrow cells were counted with automatic cell counter EVE^TM (NanoEnTek, Seul, Korea). […] For bone marrow, the number of parasites was calculated per 10^5 cells using the formula: [(geometric mean of reciprocal titer from each triplicate/number of cells) × reciprocal fraction of the cells inoculated into the first well]. […]

[2] = Formulation (solubility and stability) study of URB1483; assay type: physicochemical; conditions: for Solubility: 48-72 h at 37 °C
Experimental: Equivalence calculation between URB1483 concentration and injectable dose (mg/kg) […]
Considering an average mice weight of 25 g and an IP injectable volume of 100 μL, the following […]
correspondence can be considered:
[URB1483](mg/mL) = Dose (mg/kg) ∙ 0.025 (kg)
[URB1483](mM) = Dose (mg/kg) ∙0.025 (kg)
General procedure for the formulation study
To the indicated volume of the URB1483 stock solution in DMSO (25.0 mg/mL , 50.24 mM) were […]
added the appropriate volume or weight of excipient and the resulting mixture was heated at 37 °C […]
and sonicated for 10-20 min. Finally, distilled water was added to reach the final volume of 1 mL […]
(Table S1). The resulting formulation was ma intained at 37 °C under stirring for 48-72 h. At regular […]
time points, aliquots of the described formulations were sampled, centrifuged (8000 rpm, 10 min), […]
and two volumes of acetonitrile were added. After further centrifugation (8000 rpm, 10 min), the […]
resulted clear samples were analyzed by HPLC -ESI-MS for a percentage of the remaining compound.
URB1483 was considered soluble and stable in the formulation with more than 90% of the compoun d […]
Table S1 – Preliminary Formulation Study on URB1483[a]
Entry Final Dose Stock Solution URB1483 Volume Excipient Solubility[b]
2[c] 1 mg/kg 5 μL DMSO (95 μL) 🗶
3[c] 1 mg/kg 5 μL DMSO (195 μL) ✓
[a] DMSO = dimethylsulfoxide; PG = propylene glycol; PEG = polyethylene glycol; HPBC = 2-hydropropyl- […]
β-cyclodextrin. [b] URB1483 was considered soluble and stable with more than 90% of the compound […]
remaining unaltered after 48-72 h at 37 °C, by HPLC-ESI-MS analysis. [c] Instead of water, a physiological […]
solution (saline) was utilized.

[3] = tested on: L. infantum MHOM/TN/80/IPT1 promastigotes; parameters: method as in PMID 34984300; conditions: read-out: IC50 against L. infantum promastigotes; cited from earlier work
THP-1 cells = tested on: THP-1 cells; parameters: method as in PMID 34984300; conditions: cited from earlier work
[4] = tested on: L. infantum intracellular amastigotes; parameters: method as in PMID 34984300; conditions: compared with pentamidine; cited from earlier work
[5] = tested on: THP-1, DH82, HepG2, HaCaT and HPF cells; parameters: method as in PMID 34984300; conditions: cited from earlier work

## CCOC(=O)c1c(C(=O)OC)cn(CC(c2cn(C)c3ccccc23)c2cn(C)c3ccccc23)c1C [URB1483]
[1]
  effect on parasite burden (in vivo efficacy): did not significantly reduce parasite burden; also recorded: No in vivo efficacy; also recorded: could not reduce parasite burden; also recorded: ineffective
[2]
  water solubility: Poorly soluble in water; also recorded: very poor water solubility; also recorded: poor water solubility
[2]; 60% PEG 400 in water, 1.25 mg/mL, mouse weight 25 g, injection volume 100 μL
  maximum injectable concentration: 5 mg/kg
[2]; entry 3: final dose 1 mg/kg, DMSO (195 μL), saline
  Solubility: ✓ (URB1483 was considered soluble and stable with more than 90% of the compound remaining unaltered after 48-72 h at 37 °C, by HPLC-ESI-MS analysis)
[2]; entry 6: final dose 1 mg/kg, PG (600 mg), water
  Solubility: ✓ (URB1483 was considered soluble and stable with more than 90% of the compound remaining unaltered after 48-72 h at 37 °C, by HPLC-ESI-MS analysis)
[2]; entry 9: final dose 1 mg/kg, PEG 400 (400 mg), water
  Solubility: ✓ (URB1483 was considered soluble and stable with more than 90% of the compound remaining unaltered after 48-72 h at 37 °C, by HPLC-ESI-MS analysis)
[2]; entry 11: final dose 1 mg/kg, PEG 400 (500 mg), water
  Solubility: ✓ (URB1483 was considered soluble and stable with more than 90% of the compound remaining unaltered after 48-72 h at 37 °C, by HPLC-ESI-MS analysis)
[2]; entry 12: final dose 2 mg/kg, PEG 400 (500 mg), water
  Solubility: ✓ (URB1483 was considered soluble and stable with more than 90% of the compound remaining unaltered after 48-72 h at 37 °C, by HPLC-ESI-MS analysis)
[2]; entry 14: final dose 1 mg/kg, PEG 400 (600 mg), water
  Solubility: ✓ (URB1483 was considered soluble and stable with more than 90% of the compound remaining unaltered after 48-72 h at 37 °C, by HPLC-ESI-MS analysis)
[2]; entry 15: final dose 2 mg/kg, PEG 400 (600 mg), water
  Solubility: ✓ (URB1483 was considered soluble and stable with more than 90% of the compound remaining unaltered after 48-72 h at 37 °C, by HPLC-ESI-MS analysis)
[2]; entry 16: final dose 5 mg/kg, PEG 400 (600 mg), water
  Solubility: ✓ (URB1483 was considered soluble and stable with more than 90% of the compound remaining unaltered after 48-72 h at 37 °C, by HPLC-ESI-MS analysis)
[2]; entry 19: final dose 1 mg/kg, HPBC (400 mg), water
  Solubility: ✓ (URB1483 was considered soluble and stable with more than 90% of the compound remaining unaltered after 48-72 h at 37 °C, by HPLC-ESI-MS analysis)
[3]
  IC50: 3.7 µM and 4 µM
THP-1 cells
  CC50: > 200 µM
  selectivity index (SI): greater than 55
[4]
  efficacy on in vitro infection model: comparable to that of the commercial drug pentamidine
[5]
  toxicity on mammalian cell lines: did not affect the viability; also recorded: No toxicity
